Consider six compounds from paper PMC11995211, “Design, Synthesis, and Evaluation of a New Fluorescent Ligand for the M2 Muscarinic Acetylcholine Receptor” (ACS Medicinal Chemistry Letters, 2025).

Data set [1] deals with M1. The note with it: Figure 1; published data, reference numbers not given; cited from earlier work.
Data set [2] has as its target M2R. The note with it: Figure 1, M2R antagonists; published data, reference numbers not given; cited from earlier work.
In data set [3] the test system is M4. The note with it: Figure 1; published data, reference numbers not given; cited from earlier work.
Data set [4] relates to M5. The note with it: Figure 1; published data, reference numbers not given; cited from earlier work.
The conditions of data set [5]: literature statement, reference numbers not given; cited from earlier work.
The subject of data set [6] is M3. The following applies: Figure 1; published data, reference numbers not given; cited from earlier work.
The target in data set [7] is T1, hM1R (Homo sapiens, UniProt P11229).
T1 construct: expressed in transfected cells; host or cells: CHO cell membranes
T1 sequence (P11229 1-460): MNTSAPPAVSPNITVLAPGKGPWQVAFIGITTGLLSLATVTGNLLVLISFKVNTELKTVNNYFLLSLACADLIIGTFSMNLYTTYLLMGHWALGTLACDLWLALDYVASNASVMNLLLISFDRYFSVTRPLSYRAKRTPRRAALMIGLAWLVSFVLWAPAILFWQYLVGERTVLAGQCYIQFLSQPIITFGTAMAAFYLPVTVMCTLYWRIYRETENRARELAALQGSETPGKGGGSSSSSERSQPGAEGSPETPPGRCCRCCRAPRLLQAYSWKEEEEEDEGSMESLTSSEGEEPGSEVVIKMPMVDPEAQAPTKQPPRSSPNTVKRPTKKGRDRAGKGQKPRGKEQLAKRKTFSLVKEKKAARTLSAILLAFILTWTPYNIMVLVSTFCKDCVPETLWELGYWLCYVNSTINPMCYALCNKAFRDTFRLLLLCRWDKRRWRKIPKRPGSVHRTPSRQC
The data set can be described thus: Radioligand competition binding, [3H]-scopolamine (N-methyl), CHO cell membranes, hM1R. The following applies: mean ± SD, n = 3; membranes from CHO cells transfected with hM1R; read-out: Receptor Ki M1. On the technique in general: In a radioligand displacement assay an active substance lowers the binding of a labelled ligand.

For data set [8], the target named is T2, M2R (Homo sapiens, UniProt P08172).
T2 sequence (P08172 1-466): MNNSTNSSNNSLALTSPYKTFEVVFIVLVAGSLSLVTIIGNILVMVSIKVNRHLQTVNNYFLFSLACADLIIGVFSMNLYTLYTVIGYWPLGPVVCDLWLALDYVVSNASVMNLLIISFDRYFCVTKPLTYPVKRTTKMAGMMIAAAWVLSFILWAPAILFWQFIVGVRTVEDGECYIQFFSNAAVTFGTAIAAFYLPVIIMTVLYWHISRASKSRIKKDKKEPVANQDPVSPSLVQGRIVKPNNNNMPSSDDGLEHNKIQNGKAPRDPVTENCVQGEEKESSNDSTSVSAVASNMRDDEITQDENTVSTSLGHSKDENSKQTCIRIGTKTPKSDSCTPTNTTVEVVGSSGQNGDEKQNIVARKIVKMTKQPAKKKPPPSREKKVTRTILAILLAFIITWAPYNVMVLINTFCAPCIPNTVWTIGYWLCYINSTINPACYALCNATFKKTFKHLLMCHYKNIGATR
The data set can be described thus: BRET-based TRUPATH GoA activation assay, antagonism of carbachol-induced G protein activation. It is filed as cell-based. The following applies: for mode of antagonism of carbachol-induced G protein activation: TRUPATH GoA assay. (In general: In BRET a luciferase serves as donor, and the signal depends on an acceptor being close.)

The target of data set [9] is T3, hM4R (Homo sapiens, UniProt P08173).
T3 construct: expressed in transfected cells; host or cells: CHO cell membranes
T3 sequence (P08173 1-479): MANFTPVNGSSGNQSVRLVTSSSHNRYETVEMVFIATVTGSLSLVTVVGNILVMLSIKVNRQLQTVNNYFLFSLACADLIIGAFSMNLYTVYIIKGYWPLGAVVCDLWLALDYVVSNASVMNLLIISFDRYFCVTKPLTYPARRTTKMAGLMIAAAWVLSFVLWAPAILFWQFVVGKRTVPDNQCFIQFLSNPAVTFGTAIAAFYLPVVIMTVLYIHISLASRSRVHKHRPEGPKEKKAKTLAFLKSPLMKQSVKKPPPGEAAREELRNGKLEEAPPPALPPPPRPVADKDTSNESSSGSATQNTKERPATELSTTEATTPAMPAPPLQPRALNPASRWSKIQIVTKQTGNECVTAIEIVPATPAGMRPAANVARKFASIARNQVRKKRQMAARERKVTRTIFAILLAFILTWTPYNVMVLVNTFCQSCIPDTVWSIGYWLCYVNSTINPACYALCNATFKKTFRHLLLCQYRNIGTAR
The data set can be described thus: Radioligand competition binding, [3H]-scopolamine (N-methyl), CHO cell membranes, hM4R. The note with it: mean ± SD, n = 3; membranes from CHO cells transfected with hM4R; read-out: Receptor Ki M4.

For data set [10], the target named is T4, hM3R (Homo sapiens, UniProt P20309).
T4 construct: expressed in transfected cells; host or cells: CHO cell membranes
The data set can be described thus: Radioligand competition binding, [3H]-scopolamine (N-methyl), CHO cell membranes, hM3R. The following applies: mean ± SD, n = 3; membranes from CHO cells transfected with hM3R; read-out: Receptor Ki M3.

For data set [11], the target named is T5, hM5R (Homo sapiens, UniProt P08912).
T5 construct: expressed in transfected cells; host or cells: CHO cell membranes
T5 sequence (P08912 1-532): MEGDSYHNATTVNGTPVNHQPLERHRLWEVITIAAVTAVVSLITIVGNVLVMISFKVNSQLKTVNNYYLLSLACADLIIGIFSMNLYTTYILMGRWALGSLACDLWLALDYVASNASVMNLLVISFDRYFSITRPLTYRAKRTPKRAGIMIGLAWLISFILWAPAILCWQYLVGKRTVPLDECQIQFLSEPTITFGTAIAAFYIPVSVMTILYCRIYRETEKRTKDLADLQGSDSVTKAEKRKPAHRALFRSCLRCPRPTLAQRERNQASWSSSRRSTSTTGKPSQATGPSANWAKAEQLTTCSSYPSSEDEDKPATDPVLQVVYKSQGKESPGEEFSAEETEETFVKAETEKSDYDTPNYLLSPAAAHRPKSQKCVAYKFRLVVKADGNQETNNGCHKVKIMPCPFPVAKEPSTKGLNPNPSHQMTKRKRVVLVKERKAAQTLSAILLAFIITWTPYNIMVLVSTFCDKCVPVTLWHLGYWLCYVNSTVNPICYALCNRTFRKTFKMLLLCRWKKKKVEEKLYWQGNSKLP
The data set can be described thus: Radioligand competition binding, [3H]-scopolamine (N-methyl), CHO cell membranes, hM5R. The note with it: mean ± SD, n = 3; membranes from CHO cells transfected with hM5R; read-out: Receptor Ki M5.

The target in data set [12] is T6, hM2R (Homo sapiens, UniProt P08172).
T6 construct: expressed in transfected cells; host or cells: CHO cell membranes
T6 sequence (P08172 1-466): T2 sequence (P08172 1-466)
The data set can be described thus: Radioligand competition binding, [3H]-scopolamine (N-methyl), CHO cell membranes, hM2R. The following applies: mean ± SD, n = 3; membranes from CHO cells transfected with hM2R; read-out: Receptor Ki M2.

T4 sequence (P20309 whole entry): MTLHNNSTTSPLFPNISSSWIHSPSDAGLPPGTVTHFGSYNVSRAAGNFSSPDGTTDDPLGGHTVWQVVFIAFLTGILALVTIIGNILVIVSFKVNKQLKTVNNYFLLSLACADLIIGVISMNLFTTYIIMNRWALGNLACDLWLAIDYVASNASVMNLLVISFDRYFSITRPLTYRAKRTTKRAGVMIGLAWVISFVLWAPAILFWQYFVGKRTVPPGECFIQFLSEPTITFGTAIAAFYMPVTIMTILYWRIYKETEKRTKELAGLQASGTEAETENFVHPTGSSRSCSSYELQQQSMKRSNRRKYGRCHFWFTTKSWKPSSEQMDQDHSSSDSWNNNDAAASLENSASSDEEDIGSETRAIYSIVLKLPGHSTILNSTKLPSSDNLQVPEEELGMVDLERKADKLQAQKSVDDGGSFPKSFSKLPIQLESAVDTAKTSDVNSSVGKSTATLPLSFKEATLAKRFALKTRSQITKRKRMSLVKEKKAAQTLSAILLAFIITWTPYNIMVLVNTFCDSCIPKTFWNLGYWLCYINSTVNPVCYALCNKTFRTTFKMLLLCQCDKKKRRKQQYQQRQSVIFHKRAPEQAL

Consider `CCCC(C)(C)C(=O)N(CC)CCCC1CCN(CC(=O)N2c3ccc(Cl)cc3C(=O)Nc3cccnc32)CC1` [Compound 1], for which the “M2R selectivity M1/M2” value in data set [1] is 35. In data set [2], the Ki is 30.2 nM.
Turning to `CCN(CC)CC1CCCCN1CC(=O)N1c2ccccc2C(=O)Nc2cccnc21` (stereo not drawn) [Compound 2], in data set [2], the Ki is 105 nM.
With `Cc1ccccc1C(=O)N1CCC(N2CCC(Cc3ccc(S(=O)(=O)c4ccc5c(c4)OCO5)cc3)CC2)CC1` [Compound 3], the “M2R selectivity M4/M2” value in [3] is reported as 37. In data set [4], the “M2R selectivity M5/M2” value is on record as 280. In data set [5], the pharmacokinetics result is given as “poor”. Also, the “M2R selectivity M3/M2” value in [6] was 730. The “M2R selectivity M1/M2” value in data set [1] is on record as 1400. The Ki in data set [2] was 0.02 nM.
Take `Nc1ccccc1C(=O)N1CCC(N2CCC(Cc3ccc(S(=O)(=O)c4cccc(Cl)c4)cc3)CC2)CC1` [Compound 28]: the results for the Ki in [7] and in [9] were 425 ± 32 nM and 9.4 ± 1.1 nM, respectively. Also, in data set [5], the oral bioavailability entry is on record as “good”. Further, the “mode of antagonism of carbachol-induced G protein activation” value in data set [8] is given as “competitive antagonists”.
As for `NCCOCCOCCNc1ccccc1C(=O)N1CCC(N2CCC(Cc3ccc(S(=O)(=O)c4cccc(Cl)c4)cc3)CC2)CC1` [Compound 30], the Ki amounted to 143 ± 11 nM in [7], 496 ± 36 nM in data set [10], 8.6 ± 0.7 nM in data set [11] and 7.4 ± 0.6 nM in data set [9].
As for `NCCOCCOCCC(=O)NCCOCCOCCNc1ccccc1C(=O)N1CCC(N2CCC(Cc3ccc(S(=O)(=O)c4cccc(Cl)c4)cc3)CC2)CC1.O=C(O)C(F)(F)F` [Compound 32], the Ki in data set [7] was 113 ± 8 nM; in data set [12], 1.1 ± 0.1 nM; in data set [10] it was 373 ± 38 nM; in [11], 8.5 ± 0.9 nM; in data set [9], 6.2 ± 0.9 nM. The “mode of antagonism of carbachol-induced G protein activation” value in [8] is given as “competitive antagonists”. In addition, the “Log(IC50) ± SD (M), carbachol-induced GoA protein activation” value in [8] (log10 of IC50 (negative values), HEK 293T, compound 20 min, then 10 μM carbachol 15 min, Hill-slope = 1, n = 3) is given as “–6.97 ± 0.12 M”.

Usually Ki stands for the equilibrium dissociation constant of an inhibitor or competing ligand from its target.
